Results published in article PMC4450297, “Screening Active Compounds from Garcinia Species Native to China Reveals Novel Compounds Targeting the STAT/JAK Signaling Pathway” (BioMed Research International, 2015).

Assays:
Assay in all cases: Cell panel screen (CellTiter-Glo)
Type in all cases: cell-based, human
Bel-7402 = Bel-7402 (Liver), 20 micromolar, 72 hrs
In short: (§1)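 Values are % growth inhibition: the signal of treated wells was set against untreated (DMSO) wells, with cell-free wells as background. Treatment lasted 72 h at 20 μM final compound, and ATP content was read by luminescence.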

BT-474 = BT-474 (Breast), 20 micromolar, 72 hrs
In short: as §1

HGC-27 = HGC-27 (Stomach), 20 micromolar, 72 hrs
In short: as §1

SW13 = SW13 (Adrenal gland), 20 micromolar, 72 hrs
In short: as §1

C8166 = C8166 (Leukemia), 20 micromolar, 72 hrs
In short: as §1

RL95 = RL95 (Uterus), 20 micromolar, 72 hrs
In short: as §1

T47D = T47D (Breast), 20 micromolar, 72 hrs
In short: as §1

HCC1395 = HCC1395 (Breast), 20 micromolar, 72 hrs
In short: as §1

A498 = A498 (listed under Lung), 20 micromolar, 72 hrs
In short: as §1

Panc 03.27 = Panc 03.27 (Pancreas), 20 micromolar, 72 hrs
In short: as §1

J82 = J82 (Urinary bladder), 20 micromolar, 72 hrs
In short: as §1

NCI-H2347 = NCI-H2347 (Lung), 20 micromolar, 72 hrs
In short: as §1

NCI-H524 = NCI-H524 (Lung), 20 micromolar, 72 hrs
In short: as §1

MSTO-211-H = MSTO-211-H (Lung), 20 micromolar, 72 hrs
In short: as §1

ZR-75-30 = ZR-75-30 (Breast), 20 micromolar, 72 hrs
In short: as §1

M059J = M059J (Brain), 20 micromolar, 72 hrs
In short: as §1

NCI-H1694 = NCI-H1694 (Lung), 20 micromolar, 72 hrs
In short: as §1

HCC1599 = HCC1599 (Breast), 20 micromolar, 72 hrs
In short: as §1

A704 = A704 (Kidney), 20 micromolar, 72 hrs
In short: as §1

TCCSUP = TCCSUP (Urinary bladder), 20 micromolar, 72 hrs
In short: as §1

ChaGo-K-1 = ChaGo-K-1 (Lung), 20 micromolar, 72 hrs
In short: as §1

C3A = C3A (Liver), 20 micromolar, 72 hrs
In short: as §1

BT-549 = BT-549 (Breast), 20 micromolar, 72 hrs
In short: as §1

CCF-STTG1 = CCF-STTG1 (Brain), 20 micromolar, 72 hrs
In short: as §1

NCI-H1770 = NCI-H1770 (Lung), 20 micromolar, 72 hrs
In short: as §1

HPAF-II = HPAF-II (Pancreas), 20 micromolar, 72 hrs
In short: as §1

Colo 205 = conditions: Colo 205, 20 micromolar, 72 hrs
In short: as §1

HEC-1-A = HEC-1-A (Uterus), 20 micromolar, 72 hrs
In short: as §1

NCI-H1623 = NCI-H1623 (Lung), 20 micromolar, 72 hrs
In short: as §1

HCC1569 = HCC1569 (Breast), 20 micromolar, 72 hrs
In short: as §1

CW-2 = CW-2 (Colon), 20 micromolar, 72 hrs
In short: as §1

HT-1197 = HT-1197 (Urinary bladder), 20 micromolar, 72 hrs
In short: as §1

HCC1937 = HCC1937 (Breast), 20 micromolar, 72 hrs
In short: as §1

T98G = T98G (Brain), 20 micromolar, 72 hrs
In short: as §1

NCI-H28 = NCI-H28 (Lung), 20 micromolar, 72 hrs
In short: as §1

NCI-H2405 = NCI-H2405 (Lung), 20 micromolar, 72 hrs
In short: as §1

SMILES | Percent Inhibition (Bel-7402) [%] | Percent Inhibition (BT-474) [%] | Percent Inhibition (HGC-27) [%] | Percent Inhibition (SW13) [%] | Percent Inhibition (C8166) [%] | Percent Inhibition (RL95) [%] | Percent Inhibition (T47D) [%] | Percent Inhibition (HCC1395) [%] | Percent Inhibition (A498) [%] | Percent Inhibition (Panc 03.27) [%] | Percent Inhibition (J82) [%] | Percent Inhibition (NCI-H2347) [%] | Percent Inhibition (NCI-H524) [%] | Percent Inhibition (MSTO-211-H) [%] | Percent Inhibition (ZR-75-30) [%] | Percent Inhibition (M059J) [%] | Percent Inhibition (NCI-H1694) [%] | Percent Inhibition (HCC1599) [%] | Percent Inhibition (A704) [%] | Percent Inhibition (TCCSUP) [%] | also measured
CC(C)=CCc1c2c(c(O)c3c1OC14C(=CC5CC1C(C)(C)OC4(CC=C(C)C(=O)O)C5=O)C3=O)C=CC(C)(C)O2 (stereo not drawn) [GB27] | 97 | 98 | 98 | 99 | 99 | 98 | 99 | 99 | 88 | 97 | 98 | 93 | 99 | 99 | 99 | 99 | 99 | 99 | 98 | 99 | Percent Inhibition (ChaGo-K-1): 98%; Percent Inhibition (C3A): 98%; Percent Inhibition (BT-549): 98%; Percent Inhibition (CCF-STTG1): 99%; Percent Inhibition (NCI-H1770): 99%; Percent Inhibition (HPAF-II): 98%; Percent Inhibition (Colo 205): 99%; Percent Inhibition (HEC-1-A): 99%; Percent Inhibition (NCI-H1623): 98%; Percent Inhibition (HCC1569): 99%; Percent Inhibition (CW-2): 99%; Percent Inhibition (HT-1197): 95%; Percent Inhibition (HCC1937): 99%; Percent Inhibition (T98G): 99%; Percent Inhibition (NCI-H28): 90%; Percent Inhibition (NCI-H2405): 98%
COc1c(CC=C(C)C)c(O)c2c(=O)c3ccc(O)c(O)c3oc2c1CC=C(C)C [gl-9] | 96 | 94 | 97 | 99 | 96 | 98 | 90 | 98 | 86 | 92 | 99 | 82 | 99 | 98 | 99 | 92 | 100 | 95 | 88 | 96 | Percent Inhibition (ChaGo-K-1): 97%; Percent Inhibition (C3A): 77%; Percent Inhibition (BT-549): 96%; Percent Inhibition (CCF-STTG1): 92%; Percent Inhibition (NCI-H1770): 93%; Percent Inhibition (HPAF-II): 85%; Percent Inhibition (Colo 205): 97%; Percent Inhibition (HEC-1-A): 85%; Percent Inhibition (NCI-H1623): 85%; Percent Inhibition (HCC1569): 93%; Percent Inhibition (CW-2): 99%; Percent Inhibition (HT-1197): 97%; Percent Inhibition (HCC1937): 94%; Percent Inhibition (T98G): 98%; Percent Inhibition (NCI-H28): 86%; Percent Inhibition (NCI-H2405): 93%
COc1c(O)c(O)c2c(=O)c3c(CC=C(C)C)c(CC=C(C)C)c(O)c(O)c3oc2c1CC=C(C)C [Compound N-7] | 15 | -21 | 0 | -14 | 10 | -16 | -9 | 22 | 13 | -24 | 17 | -18 | -30 | -1 | -11 | 10 | 25 | 8 | 1 | 18 | Percent Inhibition (ChaGo-K-1): 4%; Percent Inhibition (C3A): 24%; Percent Inhibition (BT-549): -14%; Percent Inhibition (CCF-STTG1): 6%; Percent Inhibition (NCI-H1770): -6%; Percent Inhibition (HPAF-II): 9%; Percent Inhibition (Colo 205): 9%; Percent Inhibition (HEC-1-A): -17%; Percent Inhibition (NCI-H1623): -8%; Percent Inhibition (HCC1569): 5%; Percent Inhibition (CW-2): 22%; Percent Inhibition (HT-1197): 13%; Percent Inhibition (HCC1937): -5%; Percent Inhibition (T98G): 17%; Percent Inhibition (NCI-H28): 21%; Percent Inhibition (NCI-H2405): -7%
COc1cc(O)c2c(=O)c3c(CC=C(C)C)cc(O)c(O)c3oc2c1CC=C(C)CCC=C(C)C [Go-23] | 96 | 70 | 97 | 96 | 95 | 97 | 94 | 97 | 94 | 92 | 97 | 68 | 98 | 95 | 95 | 93 | 98 | 98 | 96 | 93 | Percent Inhibition (ChaGo-K-1): 94%; Percent Inhibition (C3A): 77%; Percent Inhibition (BT-549): 96%; Percent Inhibition (CCF-STTG1): 87%; Percent Inhibition (NCI-H1770): 98%; Percent Inhibition (HPAF-II): 82%; Percent Inhibition (Colo 205): 96%; Percent Inhibition (HEC-1-A): 76%; Percent Inhibition (NCI-H1623): 92%; Percent Inhibition (HCC1569): 97%; Percent Inhibition (CW-2): 97%; Percent Inhibition (HT-1197): 96%; Percent Inhibition (HCC1937): 96%; Percent Inhibition (T98G): 98%; Percent Inhibition (NCI-H28): 82%; Percent Inhibition (NCI-H2405): 98%
